We go through 24 compounds from patent US10336762B2 (priority 2017, dated 2019).

The test system of assay [1] is TNFα. Briefly: cells. It is filed as cell-based, human. The conditions noted are these: Homo sapiens, Monocyte, LPS-stimulated human monocytes, TNFα content; read-out: EC50 TNF.
For assay [2], the target named is IRAK4 enzyme (Homo sapiens (Human), UniProt Q9NWZ3). In words: biochemical. It is filed as biochemical. The settings on record: IRAK4 enzyme, TR-FRET (HTRF), 500 μM ATP. On the technique in general: Time-resolved FRET reads energy transfer from a long-lived donor to a nearby acceptor.
Sequence of IRAK4 enzyme (Q9NWZ3 whole entry): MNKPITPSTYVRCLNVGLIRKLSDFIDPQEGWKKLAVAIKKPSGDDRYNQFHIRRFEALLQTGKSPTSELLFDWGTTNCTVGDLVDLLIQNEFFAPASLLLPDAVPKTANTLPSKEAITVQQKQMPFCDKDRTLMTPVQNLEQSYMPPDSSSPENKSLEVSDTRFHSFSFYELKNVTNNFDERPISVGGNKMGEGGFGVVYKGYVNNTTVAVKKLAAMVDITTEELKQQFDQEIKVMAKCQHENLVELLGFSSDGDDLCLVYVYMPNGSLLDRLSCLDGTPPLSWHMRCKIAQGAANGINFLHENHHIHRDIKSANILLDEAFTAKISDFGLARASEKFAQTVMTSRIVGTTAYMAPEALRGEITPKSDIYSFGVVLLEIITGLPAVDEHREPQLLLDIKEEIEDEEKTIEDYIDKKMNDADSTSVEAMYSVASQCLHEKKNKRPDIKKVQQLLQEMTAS

`CC(C)(O)[C@H](F)CNC(=O)c1cnc(-c2ccc3cc(C#N)cnn23)cc1NCCc1ccc(F)cc1` [Example 707, (R)-6-(3-cyanopyrrolo[1,2-b]pyridazin-7-yl)-N-(2-fluoro-3-hydroxy-3-methylbutyl)-4-((4-fluorophenethyl)amino) nicotinamide]: in assay [1], the EC50 (commonly the midpoint of the concentration-response curve) was determined as 42 nM. In assay [2], it took 1 nM to reach half-maximal inhibition (IC50).

Turning to `CC(C)(O)[C@H](F)CNC(=O)c1cnc(-c2ccc3cc(C#N)cnn23)cc1N[C@H]1C[C@H](Oc2ccccc2)C1` [Example 708, 6-(3-cyanopyrrolo[1,2-b]pyridazin-7-yl)-N-((R)-2-fluoro-3-hydroxy-3-methylbutyl)-4-(((1r,3R)-3-phenoxycyclobutyl)amino) nicotinamide], in assay [1], the EC50 came out at 57 nM. The IC50 – broadly, the concentration at which inhibition is half-maximal – in assay [2] worked out at 1 nM.

As for `N#Cc1cnn2c(-c3cc(NC45CCC(O)(CC4)CC5)c(C(=O)NCC4(F)CC4)cn3)ccc2c1` [Example 709, 6-(3-cyanopyrrolo[1,2-b]pyridazin-7-yl)-N-((1-fluorocyclopropyl)methyl)-4-((4-hydroxy-bicyclo[2.2.2]octan-1-yl)amino)nicotinamide], the EC50 in assay [1] was 151 nM. In assay [2], this compound yielded an IC50 of 3 nM.

In the case of `N#Cc1cnn2c(-c3cc(NC45CCC(O)(CC4)CC5)c(C(=O)NCC4(C(F)F)COC4)cn3)ccc2c1` [Example 710, 6-(3-cyanopyrrolo[1,2-b]pyridazin-7-yl)-N-((3-(difluoromethyl)oxetan-3-yl)methyl)-4-((4-hydroxybicyclo[2.2.2]octan-1-yl)amino) nicotinamide], in assay [1], the EC50 came out at 183 nM. In assay [2], this compound gave an IC50 of 4 nM.

For the compound `N#Cc1cnn2c(-c3cc(NC45CCC(O)(CC4)CC5)c(C(=O)NCC4(CO)COC4)cn3)ccc2c1` [Example 711, 6-(3-cyanopyrrolo[1,2-b]pyridazin-7-yl)-4-((4-hydroxybicyclo[2.2.2]octan-1-yl)amino)-N-((3-(hydroxymethyl)oxetan-3-yl)methyl)nicotinamide], the EC50 in assay [1] amounted to 231 nM. This compound also registered an IC50 in assay [2] of 2 nM.

For the compound `CC(C)Nc1cc(-c2ccc3cc(C#N)cnn23)ncc1C(=O)NCCC(O)C(F)(F)F` (stereo not drawn) [Example 712, 6-(3-cyanopyrrolo[1,2-b]pyridazin-7-yl)-4-(isopropyl-amino)-N-(4,4,4-trifluoro-3-hydroxybutyl)nicotinamide], the EC50 in assay [1] is 47 nM. Also, the IC50 in assay [2] was below 1 nM.

On to `COCC1CCC1CNc1cc(-c2ccc3cc(C#N)cnn23)ncc1C(=O)NC[C@@H](F)C(C)(C)O` (stereo partly drawn) [Example 713, 6-(3-cyanopyrrolo[1,2-b]pyridazin-7-yl)-N-((R)-2-fluoro-3-hydroxy-3-methyl-butyl)-4-(((2-(methoxy-methyl)cyclobutyl)methyl)amino)nicotinamide], for which the EC50 in assay [1] was 264 nM. Besides, it took 2 nM to reach half-maximal inhibition in assay [2] (IC50).

In the case of `CC(C)(O)[C@H](F)CNC(=O)c1cnc(-c2ccc3cc(C#N)cnn23)cc1N[C@H]1C[C@H](CN2CCOC2=O)C1` [Example 714, 6-(3-cyanopyrrolo[1,2-b]pyridazin-7-yl)-N-((R)-2-fluoro-3-hydroxy-3-methylbutyl)-4-(((1r,3R)-3-((2-oxooxazolidin-3-yl)methyl)cyclobutyl)amino)nicotinamide], in assay [1], the 50% effective concentration (EC50) worked out at 35 nM. For the same compound, the half-maximal inhibitory concentration (IC50) in assay [2] was below 1 nM.

As for `CC(C)(O)[C@H](F)CNC(=O)c1cnc(-c2ccc3cc(C#N)cnn23)cc1N[C@H]1CC[C@H](CN2CCOC2=O)CC1` [Example 715, 6-(3-cyanopyrrolo[1,2-b]pyridazin-7-yl)-N-((R)-2-fluoro-3-hydroxy-3-methylbutyl)-4-(((1r,4R)-4-((2-oxooxazolidin-3-yl)methyl)cyclohexyl)amino)nicotinamide], in assay [1], the EC50 came to 57 nM. Also, half-maximal inhibition in assay [2] (IC50) was put at 1 nM.

With `COC(=O)NCCCNc1cc(-c2ccc3cc(C#N)cnn23)ncc1C(=O)NC[C@@H](F)C(C)(C)O` [Example 716, (R)-methyl (3-((2-(3-cyanopyrrolo[1,2-b]pyridazin-7-yl)-5-((2-fluoro-3-hydroxy-3-methylbutyl)carbamoyl)pyridin-4-yl)amino)propyl)carbamate], in assay [1], the EC50 worked out at 55 nM. Further, the IC50 in assay [2] was below 1 nM.

For `COC(=O)NCCCCNc1cc(-c2ccc3cc(C#N)cnn23)ncc1C(=O)NC[C@@H](F)C(C)(C)O` [Example 717, (R)-methyl (4-((2-(3-cyano-pyrrolo[1,2-b]pyridazin-7-yl)-5-((2-fluoro-3-hydroxy-3-methylbutyl)carbamoyl)pyridin-4-yl)amino)butyl) carbamate], in assay [1], the EC50 stood at 66 nM. The IC50 in assay [2] was below 1 nM.

Turning to `COC(=O)NCC(C)(C)CNc1cc(-c2ccc3cc(C#N)cnn23)ncc1C(=O)NC[C@@H](F)C(C)(C)O` [Example 718, (R)-methyl (3-((2-(3-cyano-pyrrolo[1,2-b]pyridazin-7-yl)-5-((2-fluoro-3-hydroxy-3-methylbutyl)carbamoyl)pyridin-4-yl)amino)-2,2-dimethylpropyl)carbamate], the EC50 in assay [1] is 280 nM. This compound came in with an IC50 in assay [2] of 2 nM.

For the compound `CC(C)(O)[C@H](F)CNC(=O)c1cnc(-c2ccc3cc(C#N)cnn23)cc1Nc1ccc(Cn2ccccc2=O)cc1` [Example 719, (R)-6-(3-cyanopyrrolo[1,2-b]pyridazin-7-yl)-N-(2-fluoro-3-hydroxy-3-methylbutyl)-4-((4-((2-oxopyridin-1(2H)-yl)methyl)phenyl)amino)nicotinamide], in assay [1], the EC50 came to 11 nM. Moreover, the IC50 in assay [2] is below 1 nM.

With `COC(=O)NCCCC(C)(C)Nc1cc(-c2ccc3cc(C#N)cnn23)ncc1C(=O)NC[C@@H](F)C(C)(C)O` [Example 720, (R)-methyl (4-((2-(3-cyano-pyrrolo[1,2-b]pyridazin-7-yl)-5-((2-fluoro-3-hydroxy-3-methylbutyl)carbamoyl)pyridin-4-yl)amino)-4-methylpentyl)carbamate], the EC50 in assay [1] was determined as 243 nM. The compound also came in with an IC50 in assay [2] of 2 nM.

As to `COC(=O)NCCC(C)(C)Nc1cc(-c2ccc3cc(C#N)cnn23)ncc1C(=O)NC[C@@H](F)C(C)(C)O` [Example 721, (R)-methyl (3-((2-(3-cyano-pyrrolo[1,2-b]pyridazin-7-yl)-5-((2-fluoro-3-hydroxy-3-methylbutyl)carbamoyl)pyridin-4-yl)amino)-3-methylbutyl)carbamate], in assay [1], the EC50 is 87 nM. In addition, the IC50 in assay [2] was determined as 1 nM.

Consider `COC(=O)N1C[C@@H]2[C@H](C1)[C@H]2Nc1cc(-c2ccc3cc(C#N)cnn23)ncc1C(=O)NC[C@@H](F)C(C)(C)O` [Example 722, (1R,5S,6s)-methyl 6-((2-(3-cyanopyrrolo[1,2-b]pyridazin-7-yl)-5-(((R)-2-fluoro-3-hydroxy-3-methyl-butyl)carbamoyl)pyridin-4-yl)amino)-3-aza-bicyclo[3.1.0]hexane-3-carboxylate], for which the EC50 in assay [1] was determined as 35 nM. The compound further had an IC50 in assay [2] below 1 nM.

Take `CC(C)(O)[C@H](F)CNC(=O)c1cnc(-c2ccc3cc(C#N)cnn23)cc1N[C@H]1CC[C@H](N2CCC(F)(F)C2)CC1` [Example 723, 6-(3-cyanopyrrolo[1,2-b]pyridazin-7-yl)-4-(((1r,4R)-4-(3,3-difluoropyrrolidin-1-yl)cyclohexyl)amino)-N-((R)-2-fluoro-3-hydroxy-3-methylbutyl)nicotinamide]: the EC50 in assay [1] came out at 793 nM. For the same compound, the IC50 in assay [2] worked out at 7 nM.

In the case of `CC(C)(O)[C@H](F)CNC(=O)c1cnc(-c2ccc3cc(C#N)cnn23)cc1N[C@H]1CC[C@@H](N2CCC(F)(F)C2)CC1` [Example 724, 6-(3-cyanopyrrolo[1,2-b]pyridazin-7-yl)-4-(((1s,4S)-4-(3,3-difluoropyrrolidin-1-yl)cyclohexyl)amino)-N-((R)-2-fluoro-3-hydroxy-3-methylbutyl)nicotinamide], the EC50 in assay [1] came to 59 nM. For the same compound, in assay [2], the IC50 is below 1 nM.

Turning to `CNC(=O)OC[C@H]1C[C@H](Nc2cc(-c3ccc4cc(C#N)cnn34)ncc2C(=O)NC[C@@H](F)C(C)(C)O)C1` [Example 725], the EC50 in assay [1] stood at 23 nM. The compound further showed an IC50 in assay [2] below 1 nM.

Consider `COC(=O)NC(C)(C)CCCNc1cc(-c2ccc3cc(C#N)cnn23)ncc1C(=O)NC[C@@H](F)C(C)(C)O` [Example 726, (R)-methyl (5-((2-(3-cyanopyrrolo[1,2-b]pyridazin-7-yl)-5-((2-fluoro-3-hydroxy-3-methylbutyl)carbamoyl)pyridin-4-yl)amino)-2-methylpentan-2-yl) carbamate], for which the EC50 in assay [1] was 169 nM. In assay [2], the IC50 amounted to 4 nM.

`COC(=O)NC(C)(C)CCNc1cc(-c2ccc3cc(C#N)cnn23)ncc1C(=O)NC[C@@H](F)C(C)(C)O` [Example 727, (R)-methyl (4-((2-(3-cyanopyrrolo[1,2-b]pyridazin-7-yl)-5-((2-fluoro-3-hydroxy-3-methylbutyl)carbamoyl)pyridin-4-yl)amino)-2-methylbutan-2-yl)carbamate]: the EC50 in assay [1] came out at 203 nM. For the same compound, half-maximal inhibition in assay [2] (IC50) was put at 3 nM.

As for `CC(C)(O)[C@H](F)CNC(=O)c1cnc(-c2ccc3cc(C#N)cnn23)cc1N[C@H]1C[C@H](CNC(=O)OCC(F)F)C1` [Example 728, 2,2-difluoroethyl (((1R,3r)-3-((2-(3-cyanopyrrolo[1,2-b]pyridazin-7-yl)-5-(((R)-2-fluoro-3-hydroxy-3-methylbutyl)carbamoyl)pyridin-4-yl)amino)cyclo-butyl)methyl)carbamate], the EC50 in assay [1] amounted to 4 nM. Further, the IC50 in assay [2] was below 1 nM.

For `CC(C)(O)[C@H](F)CNC(=O)c1cnc(-c2ccc3cc(C#N)cnn23)cc1N[C@H]1C[C@H](Cn2ccccc2=O)C1` [Example 729, 6-(3-cyanopyrrolo[1,2-b]pyridazin-7-yl)-N-((R)-2-fluoro-3-hydroxy-3-methylbutyl)-4-(((1r,3R)-3-((2-oxopyridin-1(2H)-yl)methyl)cyclobutyl)amino)nicotinamide], the EC50 in assay [1] came to 58 nM. Also, half-maximal inhibition in assay [2] (IC50) was put at 1 nM.

For the compound `CC(C)(O)[C@H](F)CNC(=O)c1cnc(-c2ccc3cc(C#N)cnn23)cc1N[C@H]1C[C@@H](CO)C1` [Example 730], the EC50 in assay [1] came to 40 nM. The compound also gave an IC50 in assay [2] below 1 nM.
